This is an account of results in ChEMBL document CHEMBL1150455, “Preparation and in vitro activities of naphthyl and indolyl ether derivatives of the FK-506 related immunosuppressive macrolide ascomycin” (Bioorg Med Chem Lett, 1996).

For assay [1], the system named is T-cell. Briefly: In vitro inhibition of proliferation of PMA and ionomycin stimulated murine T cells; Antagonist. Format: functional, cell-based, Mus musculus.
Assay [2] has as its target Peptidyl-prolyl cis-trans isomerase FKBP1A (Homo sapiens, UniProt P62942). Description: In vitro competitive binding to FK506 binding protein 12 versus tritiated FK-506.
Assay [3] deals with T-cell. Briefly: In vitro inhibition of proliferation of PMA and ionomycin stimulated murine T cells. It is filed as functional, cell-based. The following applies: Mus musculus.

Sequence of Peptidyl-prolyl cis-trans isomerase FKBP1A (P62942 whole entry): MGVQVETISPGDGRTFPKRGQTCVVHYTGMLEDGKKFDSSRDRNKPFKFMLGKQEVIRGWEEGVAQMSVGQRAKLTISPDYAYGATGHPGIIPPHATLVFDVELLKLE

`CC[C@@H]1/C=C(\C)[C@@H](O)[C@H](C)[C@H](OC)[C@H]2O[C@@](O)(C(=O)C(=O)N3CCCC[C@H]3C(=O)O[C@H](/C(C)=C/[C@@H]3CC[C@@H](O)[C@H](OC)C3)[C@H](C)[C@@H](O)CC1=O)[C@H](C)C[C@@H]2OC`: the IC50 (usually the concentration that inhibits the measured activity by half) with T-cell [1] is “Antagonist”; in assay [2] it was 0.7 nM.
With `CC[C@@H]1/C=C(\C)C[C@H](C)[C@H](OC)[C@H]2O[C@@](O)(C(=O)C(=O)N3CCCC[C@H]3C(=O)O[C@H](/C(C)=C/[C@@H]3CC[C@@H](Oc4ccccc4)[C@H](OC)C3)[C@H](C)[C@@H](O)CC1=O)[C@H](C)C[C@@H]2OC`, the IC50 came out at 5.4 nM with T-cell [3] and 10 nM in assay [2].
For `CC[C@@H]1/C=C(\C)C[C@H](C)[C@H](OC)[C@H]2O[C@@](O)(C(=O)C(=O)N3CCCC[C@H]3C(=O)O[C@H](/C(C)=C/[C@@H]3CC[C@@H](Oc4ccc5ccccc5c4)[C@H](OC)C3)[C@H](C)[C@@H](O)CC1=O)[C@H](C)C[C@@H]2OC`, the IC50 with T-cell [3] came to 1.8 nM; in assay [2] it was 74.8 nM.
Regarding `CC[C@@H]1/C=C(\C)[C@@H](O)[C@H](C)[C@H](OC)[C@H]2O[C@@](O)(C(=O)C(=O)N3CCCC[C@H]3C(=O)O[C@H](/C(C)=C/[C@@H]3CC[C@@H](Oc4ccc5ccccc5c4)[C@H](OC)C3)[C@H](C)[C@@H](O)CC1=O)[C@H](C)C[C@@H]2OC`, the half-inhibitory concentration (IC50) in the assay on T-cell [3] came out at 10.2 nM.
Take `CC[C@@H]1/C=C(\C)C[C@H](C)[C@H](OC)[C@H]2O[C@@](O)(C(=O)C(=O)N3CCCC[C@H]3C(=O)O[C@H](/C(C)=C/[C@@H]3CC[C@@H](Oc4ccc5c(ccn5C)c4)[C@H](OC)C3)[C@H](C)[C@@H](O)CC1=O)[C@H](C)C[C@@H]2OC`: the half-maximal inhibitory concentration (IC50) in the assay with T-cell [3] is 0.2 nM; in assay [2], 3.6 nM.
As to `CC[C@@H]1/C=C(\C)[C@@H](O)[C@H](C)[C@H](OC)[C@H]2O[C@@](O)(C(=O)C(=O)N3CCCC[C@H]3C(=O)O[C@H](/C(C)=C/[C@@H]3CC[C@@H](Oc4ccc5c(ccn5C)c4)[C@H](OC)C3)[C@H](C)[C@@H](O)CC1=O)[C@H](C)C[C@@H]2OC`, the half-maximal inhibitory concentration (IC50) in the assay on T-cell [3] is 5.5 nM; in assay [2], 2.8 nM.
Regarding `CC[C@@H]1/C=C(\C)C[C@H](C)[C@H](OC)[C@H]2O[C@@](O)(C(=O)C(=O)N3CCCC[C@H]3C(=O)O[C@H](/C(C)=C/[C@@H]3CC[C@@H](O)[C@H](OC)C3)[C@H](C)[C@@H](O)CC1=O)[C@H](C)C[C@@H]2OC`, the results for the concentration for half-maximal inhibition (IC50) (with T-cell [3]; in assay [2]) were 0.7 nM and 1.6 nM, respectively.
Turning to `CC[C@@H]1/C=C(\C)C[C@H](C)[C@H](OC)[C@H]2O[C@@](O)(C(=O)C(=O)N3CCCC[C@H]3C(=O)O[C@H](/C(C)=C/[C@@H]3CC[C@@H](Oc4ccc5[nH]ccc5c4)[C@H](OC)C3)[C@H](C)[C@@H](O)CC1=O)[C@H](C)C[C@@H]2OC`, the 50% inhibitory concentration (IC50) with T-cell [3] stood at 0.2 nM; in assay [2], 5.1 nM.
Turning to `C=CC[C@@H]1/C=C(\C)C[C@H](C)[C@H](OC)[C@H]2O[C@@](O)(C(=O)C(=O)N3CCCC[C@H]3C(=O)O[C@H](/C(C)=C/[C@@H]3CC[C@@H](O)[C@H](OC)C3)[C@H](C)[C@@H](O)CC1=O)[C@H](C)C[C@@H]2OC`, the concentration for half-maximal inhibition (IC50) in the assay on T-cell [3] is 0.2 nM; in assay [2], 0.8 nM.
